Experimental data as given in ChEMBL document CHEMBL1159033, “Inhibition of angiotensin-I-converting enzyme by tetrahydroxyxanthones isolated from Tripterospermum lanceolatum” (J Nat Prod, 1992).

Assays:
[1] = biological target: T1, Angiotensin-converting enzyme (Homo sapiens, UniProt P12821); assay: Inhibition of ACE at 100 uM
[2] = biological target: T1, Angiotensin-converting enzyme; assay: Inhibition of ACE at 200 uM
[3] = biological target: T1, Angiotensin-converting enzyme; assay: Inhibition of ACE at 400 uM
[4] = biological target: T1, Angiotensin-converting enzyme; assay: Inhibition of ACE by Lineweaver-Burke plot
Rattus norvegicus [5] = assay: Antihypertensive activity in spontaneously hypertensive rat assessed as inhibition of angiotensin 1-induced vasopressive response at 20 mg/kg, iv after 10 mins; type: functional
Rattus norvegicus [6] = assay: Antihypertensive activity in spontaneously hypertensive rat assessed as inhibition of angiotensin 1-induced vasopressive response at 40 mg/kg, iv after 10 mins; type: functional
Rattus norvegicus [7] = assay: Antihypertensive activity in spontaneously hypertensive rat assessed as inhibition of angiotensin 1-induced vasopressive response at 80 mg/kg, iv after 10 mins; type: functional
Rattus norvegicus [8] = assay: Antihypertensive activity in spontaneously hypertensive rat assessed as inhibition of angiotensin 1-induced vasopressive response at 20 mg/kg, iv after 20 mins; type: functional
Rattus norvegicus [9] = assay: Antihypertensive activity in spontaneously hypertensive rat assessed as inhibition of angiotensin 1-induced vasopressive response at 40 mg/kg, iv after 20 mins; type: functional
Rattus norvegicus [10] = assay: Antihypertensive activity in spontaneously hypertensive rat assessed as inhibition of angiotensin 1-induced vasopressive response at 80 mg/kg, iv after 20 mins; type: functional
Rattus norvegicus [11] = assay: Antihypertensive activity in spontaneously hypertensive rat assessed as inhibition of angiotensin 1-induced vasopressive response at 20 mg/kg, iv after 30 mins; type: functional; conditions: 0.5 h
Rattus norvegicus [12] = assay: Antihypertensive activity in spontaneously hypertensive rat assessed as inhibition of angiotensin 1-induced vasopressive response at 40 mg/kg, iv after 30 mins; type: functional; conditions: 0.5 h
Rattus norvegicus [13] = assay: Antihypertensive activity in spontaneously hypertensive rat assessed as inhibition of angiotensin 1-induced vasopressive response at 80 mg/kg, iv after 30 mins; type: functional; conditions: 0.5 h
Rattus norvegicus [14] = assay: Antihypertensive activity in spontaneously hypertensive rat assessed as inhibition of angiotensin 1-induced vasopressive response at 0.04 mg/kg, iv after 10 mins; type: functional
Rattus norvegicus [15] = assay: Antihypertensive activity in spontaneously hypertensive rat assessed as inhibition of angiotensin 1-induced vasopressive response at 0.4 mg/kg, iv after 10 mins; type: functional
Rattus norvegicus [16] = assay: Antihypertensive activity in spontaneously hypertensive rat assessed as inhibition of angiotensin 1-induced vasopressive response at 0.04 mg/kg, iv after 20 mins; type: functional
Rattus norvegicus [17] = assay: Antihypertensive activity in spontaneously hypertensive rat assessed as inhibition of angiotensin 1-induced vasopressive response at 0.4 mg/kg, iv after 20 mins; type: functional
Rattus norvegicus [18] = assay: Antihypertensive activity in spontaneously hypertensive rat assessed as inhibition of angiotensin 1-induced vasopressive response at 0.04 mg/kg, iv after 30 mins; type: functional; conditions: 0.5 h
Rattus norvegicus [19] = assay: Antihypertensive activity in spontaneously hypertensive rat assessed as inhibition of angiotensin 1-induced vasopressive response at 0.4 mg/kg, iv after 30 mins; type: functional; conditions: 0.5 h
[20] = biological target: T1, Angiotensin-converting enzyme; assay: Inhibition of ACE

T1 sequence (P12821 whole entry): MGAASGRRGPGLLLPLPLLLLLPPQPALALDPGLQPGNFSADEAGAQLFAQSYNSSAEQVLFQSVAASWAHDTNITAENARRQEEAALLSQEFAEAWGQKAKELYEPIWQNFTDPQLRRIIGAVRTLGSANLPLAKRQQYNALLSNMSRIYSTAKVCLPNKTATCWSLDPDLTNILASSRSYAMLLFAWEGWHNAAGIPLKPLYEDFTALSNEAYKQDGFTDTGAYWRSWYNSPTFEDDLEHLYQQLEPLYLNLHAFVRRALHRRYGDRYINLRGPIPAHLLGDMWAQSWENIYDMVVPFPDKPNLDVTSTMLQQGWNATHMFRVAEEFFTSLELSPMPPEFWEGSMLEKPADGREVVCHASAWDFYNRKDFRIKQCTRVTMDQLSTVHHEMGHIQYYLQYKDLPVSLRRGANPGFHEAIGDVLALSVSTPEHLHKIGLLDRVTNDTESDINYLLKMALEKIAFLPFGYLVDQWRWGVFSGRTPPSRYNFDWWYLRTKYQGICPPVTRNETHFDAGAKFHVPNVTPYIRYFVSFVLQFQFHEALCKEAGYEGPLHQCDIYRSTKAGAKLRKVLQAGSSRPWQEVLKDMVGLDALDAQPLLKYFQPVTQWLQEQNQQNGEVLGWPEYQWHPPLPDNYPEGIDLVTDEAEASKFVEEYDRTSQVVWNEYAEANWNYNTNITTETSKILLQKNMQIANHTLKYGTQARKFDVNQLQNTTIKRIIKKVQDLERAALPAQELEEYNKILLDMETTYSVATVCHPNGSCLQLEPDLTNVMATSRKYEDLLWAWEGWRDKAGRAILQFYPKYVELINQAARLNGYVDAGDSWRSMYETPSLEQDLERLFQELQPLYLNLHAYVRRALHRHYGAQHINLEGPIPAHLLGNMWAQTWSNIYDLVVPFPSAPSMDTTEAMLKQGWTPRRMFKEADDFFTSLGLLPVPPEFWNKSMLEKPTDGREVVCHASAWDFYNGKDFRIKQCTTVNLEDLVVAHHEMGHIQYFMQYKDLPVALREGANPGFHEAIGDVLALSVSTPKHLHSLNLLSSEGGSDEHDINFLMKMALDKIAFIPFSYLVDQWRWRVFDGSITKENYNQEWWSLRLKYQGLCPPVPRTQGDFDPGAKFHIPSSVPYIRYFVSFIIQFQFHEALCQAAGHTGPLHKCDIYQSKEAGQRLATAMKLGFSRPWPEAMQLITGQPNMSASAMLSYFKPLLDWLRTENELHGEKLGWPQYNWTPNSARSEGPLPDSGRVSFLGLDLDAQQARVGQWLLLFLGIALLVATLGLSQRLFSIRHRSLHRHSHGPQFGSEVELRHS

Row | SMILES | inhibition [1] [%] | inhibition [2] [%] | inhibition [3] [%] | Ki [4] [µM] | IC50 [20] [µM] | further results
1 | CC(=O)Oc1ccc2c(=O)c3ccc(OC(C)=O)c(OC(C)=O)c3oc2c1OC(C)=O | 7 | – | – | – | – | –
2 | C[C@H](CS)C(=O)N1CCC[C@H]1C(=O)O [CAPTOPRIL] | – | – | – | – | – | inhibition in vivo at 0.04 mg/kg (Rattus norvegicus [14]): 10%; inhibition in vivo at 0.4 mg/kg (Rattus norvegicus [15]): 78.5%; inhibition in vivo at 0.04 mg/kg (Rattus norvegicus [16]): 0%; inhibition in vivo at 0.4 mg/kg (Rattus norvegicus [17]): 66.6%; inhibition in vivo at 0.04 mg/kg (Rattus norvegicus [18]): 0%; inhibition in vivo at 0.4 mg/kg (Rattus norvegicus [19]): 45.5%
3 | O=c1c2ccc(O)c(O)c2oc2cc(O)cc(O)c12 | 56.4 | 67.7 | 75.3 | 34.2 | 69.2 | –
4 | CC(=O)Oc1cc2oc3cc(OC(C)=O)c(OC(C)=O)cc3c(=O)c2cc1OC(C)=O | < 1 | – | – | – | – | –
5 | O=c1c2cc(O)c(O)cc2oc2cc(O)cc(O)c12 | 15.5 | 23.5 | 40.3 | 250 | 531 | –
6 | O=c1c2ccc(O)c(O)c2oc2c(O)c(O)ccc12 | 34.3 | 46.2 | 55.5 | 126 | 239 | –
7 | O=c1c2cc(O)c(O)cc2oc2cc(O)c(O)cc12 | 11.7 | 17.2 | 26.8 | – | > 769 | –

Further lines, with some results ahead:

Row | inhibition [1] [%] | inhibition [2] [%] | inhibition [3] [%] | Ki [4] [µM] | IC50 [20] [µM] | SMILES | further results
8 | < 1 | – | – | – | – | CC(=O)Oc1cc(OC(C)=O)c2c(=O)c3cc(OC(C)=O)c(OC(C)=O)cc3oc2c1 | –
9 | < 1 | – | – | – | – | CC(=O)Oc1cc(OC(C)=O)c2c(=O)c3ccc(OC(C)=O)c(OC(C)=O)c3oc2c1 | –
10 | 83.1 | 90 | 95 | 14.2 | – | O=c1c2cc(O)c(O)cc2oc2c(O)c(O)ccc12 | inhibition in vivo at 20 mg/kg (Rattus norvegicus [5]): 33.8%; inhibition in vivo at 40 mg/kg (Rattus norvegicus [6]): 47.8%; inhibition in vivo at 80 mg/kg (Rattus norvegicus [7]): 52.7%; inhibition in vivo at 20 mg/kg (Rattus norvegicus [8]): 5.9%; inhibition in vivo at 40 mg/kg (Rattus norvegicus [9]): 30.8%; inhibition in vivo at 80 mg/kg (Rattus norvegicus [10]): 32.5%; inhibition in vivo at 20 mg/kg (Rattus norvegicus [11]): 0%; inhibition in vivo at 40 mg/kg (Rattus norvegicus [12]): 10%; inhibition in vivo at 80 mg/kg (Rattus norvegicus [13]): 13%
11 | 9.82 | – | – | – | – | CC(=O)Oc1cc2oc3c(OC(C)=O)c(OC(C)=O)ccc3c(=O)c2cc1OC(C)=O | –
